Experimental data taken from US11208412B2 (DAEGU-GYEONGBUK MEDICAL INNOVATION FOUNDATION, priority 2017, dated 2021).

What was measured:
Experiment in all cases: Kinase selectivity, DiscoverX scanMAX Kinase assay panel (% control)
Assay type in all cases: binding
[1] = target: T1, kinases of the scanMAX Kinase assay panel (Homo sapiens, UniProt Q02779); conditions: MLK2; 1 uM
T1 construct: purchased DiscoverX Co. (contract measurement) scanMAX Kinase assay panel
In short: (§1)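 Single-point screen, 1 uM cpd in DMSO. % ctrl = (cpd − pos ctrl)/(neg ctrl − pos ctrl)×100; pos ctrl = 0%, DMSO neg ctrl = 100%. Hit cutoff <35%.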

[2] = target: T2, kinases of the scanMAX Kinase assay panel (Homo sapiens, UniProt Q15208); conditions: NDR1; 1 uM
T2 construct: purchased DiscoverX Co. (contract measurement) scanMAX Kinase assay panel
In short: as §1

[3] = target: T3, kinases of the scanMAX Kinase assay panel (Homo sapiens, UniProt Q13043); conditions: MST1; 1 uM
T3 construct: purchased DiscoverX Co. (contract measurement) scanMAX Kinase assay panel
T3 sequence (Q13043 1-487): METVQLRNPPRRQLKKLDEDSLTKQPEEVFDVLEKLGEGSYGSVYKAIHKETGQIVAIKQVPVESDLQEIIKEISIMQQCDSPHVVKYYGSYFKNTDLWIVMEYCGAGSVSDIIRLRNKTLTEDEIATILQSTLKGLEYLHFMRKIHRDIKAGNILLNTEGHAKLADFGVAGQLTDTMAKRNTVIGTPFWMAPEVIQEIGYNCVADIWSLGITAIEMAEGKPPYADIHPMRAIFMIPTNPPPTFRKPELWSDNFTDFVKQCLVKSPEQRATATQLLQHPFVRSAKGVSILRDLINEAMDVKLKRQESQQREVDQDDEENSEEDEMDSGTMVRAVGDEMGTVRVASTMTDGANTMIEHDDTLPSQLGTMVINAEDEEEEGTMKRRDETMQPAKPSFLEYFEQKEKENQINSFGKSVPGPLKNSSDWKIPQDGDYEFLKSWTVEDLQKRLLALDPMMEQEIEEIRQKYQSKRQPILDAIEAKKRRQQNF
In short: as §1

[4] = target: T4, kinases of the scanMAX Kinase assay panel (Homo sapiens, UniProt Q9H093); conditions: kinase SNARK; 1 uM in DMSO
T4 construct: purchased DiscoverX Co. (contract measurement) scanMAX Kinase assay panel
T4 sequence (Q9H093 1-628): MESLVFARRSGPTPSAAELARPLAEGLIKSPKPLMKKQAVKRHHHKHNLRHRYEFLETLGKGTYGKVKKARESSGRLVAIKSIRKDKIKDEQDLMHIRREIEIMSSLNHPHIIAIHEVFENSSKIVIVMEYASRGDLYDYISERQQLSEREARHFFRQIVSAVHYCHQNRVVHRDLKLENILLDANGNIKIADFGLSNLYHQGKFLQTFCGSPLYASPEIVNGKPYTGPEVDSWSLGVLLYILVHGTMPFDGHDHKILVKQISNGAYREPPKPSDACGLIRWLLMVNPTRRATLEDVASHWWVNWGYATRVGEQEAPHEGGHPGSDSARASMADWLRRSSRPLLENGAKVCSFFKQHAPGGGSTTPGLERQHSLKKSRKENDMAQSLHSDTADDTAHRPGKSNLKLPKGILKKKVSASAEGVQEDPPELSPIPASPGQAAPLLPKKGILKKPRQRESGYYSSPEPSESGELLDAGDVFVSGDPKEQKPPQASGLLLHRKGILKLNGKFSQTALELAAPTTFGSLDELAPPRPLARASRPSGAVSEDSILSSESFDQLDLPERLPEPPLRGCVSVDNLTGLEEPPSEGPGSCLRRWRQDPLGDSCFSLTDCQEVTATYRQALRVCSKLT
In short: as §1

[5] = target: T5, kinases of the scanMAX Kinase assay panel (Homo sapiens, UniProt Q05655); conditions: PRKCD; 1 uM
T5 construct: purchased DiscoverX Co. (contract measurement) scanMAX Kinase assay panel
In short: as §1

[6] = target: T6, kinases of the scanMAX Kinase assay panel (Homo sapiens, UniProt Q13237); conditions: PRKG2; 1 uM
T6 construct: purchased DiscoverX Co. (contract measurement) scanMAX Kinase assay panel
T6 sequence (Q13237 1-762): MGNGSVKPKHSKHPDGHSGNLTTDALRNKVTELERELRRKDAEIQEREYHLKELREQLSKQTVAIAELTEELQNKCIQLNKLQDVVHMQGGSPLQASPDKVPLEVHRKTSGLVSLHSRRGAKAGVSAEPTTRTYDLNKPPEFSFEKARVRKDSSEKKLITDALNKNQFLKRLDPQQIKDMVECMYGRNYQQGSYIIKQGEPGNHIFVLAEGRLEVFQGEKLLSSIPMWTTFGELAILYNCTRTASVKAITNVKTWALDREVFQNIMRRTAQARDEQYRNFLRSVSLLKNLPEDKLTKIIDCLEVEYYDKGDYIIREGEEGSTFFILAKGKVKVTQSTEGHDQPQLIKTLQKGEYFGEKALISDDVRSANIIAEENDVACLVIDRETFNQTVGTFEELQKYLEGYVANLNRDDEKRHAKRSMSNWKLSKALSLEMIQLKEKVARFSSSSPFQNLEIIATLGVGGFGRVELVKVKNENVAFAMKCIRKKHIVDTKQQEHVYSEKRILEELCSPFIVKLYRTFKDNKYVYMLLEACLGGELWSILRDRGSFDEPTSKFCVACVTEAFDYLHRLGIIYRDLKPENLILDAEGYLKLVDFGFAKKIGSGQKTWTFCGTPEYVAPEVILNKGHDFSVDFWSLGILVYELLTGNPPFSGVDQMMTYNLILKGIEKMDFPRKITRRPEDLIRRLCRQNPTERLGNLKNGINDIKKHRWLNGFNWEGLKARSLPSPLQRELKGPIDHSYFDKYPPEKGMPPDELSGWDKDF
In short: as §1

T5 sequence (Q05655 whole entry): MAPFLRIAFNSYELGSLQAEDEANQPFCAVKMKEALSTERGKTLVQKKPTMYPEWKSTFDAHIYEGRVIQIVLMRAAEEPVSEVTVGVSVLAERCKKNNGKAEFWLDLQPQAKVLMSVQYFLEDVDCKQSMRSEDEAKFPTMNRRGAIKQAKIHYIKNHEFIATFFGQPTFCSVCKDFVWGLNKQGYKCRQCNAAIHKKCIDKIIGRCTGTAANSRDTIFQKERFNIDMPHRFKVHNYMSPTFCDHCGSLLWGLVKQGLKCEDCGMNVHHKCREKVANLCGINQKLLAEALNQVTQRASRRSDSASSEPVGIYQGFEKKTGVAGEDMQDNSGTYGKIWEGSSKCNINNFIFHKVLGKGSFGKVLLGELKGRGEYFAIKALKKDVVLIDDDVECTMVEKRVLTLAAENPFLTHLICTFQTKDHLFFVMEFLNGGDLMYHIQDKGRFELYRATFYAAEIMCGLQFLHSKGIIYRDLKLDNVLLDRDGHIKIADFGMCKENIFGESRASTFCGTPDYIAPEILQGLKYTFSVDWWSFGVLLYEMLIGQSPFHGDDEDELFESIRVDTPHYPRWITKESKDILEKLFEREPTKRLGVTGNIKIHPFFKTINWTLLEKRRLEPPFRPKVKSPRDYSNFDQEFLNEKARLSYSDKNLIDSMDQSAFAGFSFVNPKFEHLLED
T1 sequence (Q02779 whole entry): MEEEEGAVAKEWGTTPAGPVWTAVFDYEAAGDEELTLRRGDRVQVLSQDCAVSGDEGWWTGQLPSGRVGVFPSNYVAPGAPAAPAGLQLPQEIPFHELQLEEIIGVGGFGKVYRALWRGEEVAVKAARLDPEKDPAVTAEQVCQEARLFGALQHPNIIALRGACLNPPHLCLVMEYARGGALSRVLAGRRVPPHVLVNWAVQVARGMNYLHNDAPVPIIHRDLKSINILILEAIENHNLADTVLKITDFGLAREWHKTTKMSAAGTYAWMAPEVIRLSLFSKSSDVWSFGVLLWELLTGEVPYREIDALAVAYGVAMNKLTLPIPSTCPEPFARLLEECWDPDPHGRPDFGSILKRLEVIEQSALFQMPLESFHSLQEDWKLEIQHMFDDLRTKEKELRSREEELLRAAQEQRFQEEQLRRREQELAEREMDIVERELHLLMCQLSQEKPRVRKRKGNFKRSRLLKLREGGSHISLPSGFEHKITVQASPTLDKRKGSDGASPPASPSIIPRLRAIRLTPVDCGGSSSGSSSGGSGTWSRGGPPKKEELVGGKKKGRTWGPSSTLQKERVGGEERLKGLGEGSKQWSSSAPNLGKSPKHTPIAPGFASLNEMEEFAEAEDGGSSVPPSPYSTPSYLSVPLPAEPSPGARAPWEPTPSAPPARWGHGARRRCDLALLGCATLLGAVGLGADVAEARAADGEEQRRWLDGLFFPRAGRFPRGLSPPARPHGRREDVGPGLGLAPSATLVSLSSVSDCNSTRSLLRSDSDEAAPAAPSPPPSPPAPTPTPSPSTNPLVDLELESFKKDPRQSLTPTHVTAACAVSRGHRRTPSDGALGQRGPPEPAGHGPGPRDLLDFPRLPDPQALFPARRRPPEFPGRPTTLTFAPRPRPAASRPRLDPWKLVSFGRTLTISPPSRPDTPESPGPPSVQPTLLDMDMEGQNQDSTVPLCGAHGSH
T2 sequence (Q15208 whole entry): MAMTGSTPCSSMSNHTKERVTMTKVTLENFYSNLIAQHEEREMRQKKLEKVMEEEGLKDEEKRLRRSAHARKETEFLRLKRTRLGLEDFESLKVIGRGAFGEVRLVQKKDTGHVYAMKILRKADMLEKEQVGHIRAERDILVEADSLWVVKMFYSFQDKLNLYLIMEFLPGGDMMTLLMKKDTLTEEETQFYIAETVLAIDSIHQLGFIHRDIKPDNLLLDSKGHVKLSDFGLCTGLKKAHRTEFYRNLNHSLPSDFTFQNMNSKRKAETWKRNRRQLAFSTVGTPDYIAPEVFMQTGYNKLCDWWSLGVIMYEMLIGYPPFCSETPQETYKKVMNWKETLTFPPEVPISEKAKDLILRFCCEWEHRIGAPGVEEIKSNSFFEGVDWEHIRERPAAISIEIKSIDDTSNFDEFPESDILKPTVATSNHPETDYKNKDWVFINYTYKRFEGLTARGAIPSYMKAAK

Structure (SMILES) | remaining binding at 1 µM [1] [%] | remaining binding at 1 µM [2] [%] | remaining binding at 1 µM [3] [%] | remaining binding at 1 µM [4] [%] | remaining binding at 1 µM [5] [%] | remaining binding at 1 µM [6] [%]
CCNc1nc(Nc2ccc(C(=O)N3CCC(N4CCOCC4)CC3)cc2OC)nc2[nH]cc(C(F)(F)F)c12 [Example 104, (4-((4-(ethylamino)-5-(trifluoromethyl)-7H-pyrrolo[2,3-d]pyrimidine-2-yl)amino)-3-methoxyphenyl)(4-morpholinopiperidine-1-yl)methanone] | 96 | 94 | 100 | 91 | 100 | 91
CNc1nc(Nc2ccc(C(=O)N3CCOCC3)cc2OC)nc2[nH]cc(C#N)c12 [Example 1, 2-((2-methoxy-4-(morpholine-4-carbonyl)phenyl)amino)-4-(methylamino)-7H-pyrrolo[2,3-d]pyrimidine-5-carbonitrile] | 90 | 84 | 93 | 77 | 100 | 100
CC1(Nc2nc(Nc3cnn([C@H]4CCN(C5COC5)C[C@@H]4F)c3Cl)nc3[nH]cc(C#N)c23)CC1 [Example 52, 2-((5-chloro-1-((3S,4S)-3-fluoro-1-(oxetane-3-yl)piperidine-4-yl)-1H-pyrazole-4-yl)amino)((1-methylcyclopropyl)amino)-7H-pyrrolo[2,3-d]pyrimidine-5-carbonitrile] | 4.4 | 42 | 17 | 0.95 | 81 | 94
